Data reported in paper PMC11714206, “Massively Parallel Screening of Toll/Interleukin‐1 Receptor (TIR)‐Derived Peptides Reveals Multiple Toll‐Like Receptors (TLRs)‐Targeting Immunomodulatory Peptides” (Advanced Science, 2024).
Blank lines part the entries; values can stand above or below the sequence they belong to.

Molecular target: T1, MyD88^TIR (Homo sapiens, UniProt Q99836)
T1 construct: MyD88 (residues 148–296); 6xHis; made in house; host or cells: E. coli BL21 (DE3)
Assay: T‐Surf phage library (P8 and P3) selection against MyD88^TIR, four rounds, NGS read counts
Type: binding
Conditions: for P8_MyD88 Rank (after) / P8_MyD88 Rank (before): P8 library; for Population: 4th round of selection against MyD88 TIR, share of NGS reads; for P3_MyD88 Rank (after) / P3_MyD88 Rank (before): P3 library
How it was run: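 Coat TIR domain 5 µg mL^−1 overnight; block 0.2% BSA/PBS 1 h, 4 °C; add phage library 1 h, RT; wash ×4 PBS/0.5% Tween‐20; elute 100 mM HCl, neutralize Tris; amplify in TG1, PEG‐precipitate. Repeat to round 4; barcode PCR, NovaSeq, count reads.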

[1] = P8_MyD88: rank by NGS read count after grouping
[2] = P8_MyD88: rank by NGS read count before grouping
[3] = 4R selection against MyD88, rank after grouping
[4] = 4R selection against MyD88, rank before grouping
[5] = P3_MyD88: rank by count after grouping
[6] = P3_MyD88: rank by count before grouping
[7] = selection against MyD88, rank by count after grouping
[8] = selection against MyD88, rank by count before grouping
[9] = P8_MyD88: rank by count after grouping
[10] = P8_MyD88: rank by count before grouping
[11] = P8_MyD88 pool: P8 T-Surf phage library
[12] = selection against MyD88 TIR, rank by count after grouping
[13] = selection against MyD88 TIR, rank by count before grouping
[14] = selection against MyD88, rank after grouping
[15] = selection against MyD88, rank before grouping

T1 sequence (Q99836 148-296): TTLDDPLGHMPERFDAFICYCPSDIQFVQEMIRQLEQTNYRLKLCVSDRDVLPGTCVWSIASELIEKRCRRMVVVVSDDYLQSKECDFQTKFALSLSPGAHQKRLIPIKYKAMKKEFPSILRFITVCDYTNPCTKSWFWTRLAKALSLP

Rank (after) [1]: 943
Rank (before) [2]: 1408
Sequence: WALGELLQILQARERC

P8_MyD88 Rank (after) [3]: 620
P8_MyD88 Rank (before) [4]: 2993
Sequence: DPQELEWFYERLLSQM

Rank (after) [5]: 101
Rank (before) [6]: 402
Sequence: SSFREGLWRLPELLR

Rank (after) [9]: 132
Rank (before) [10]: 145
Population [11]: 0.0116%
Sequence: NFANSSWALDELWLIL

P8_MyD88 Rank (after) [7]: 699
P8_MyD88 Rank (before) [8]: 2101
Sequence: YPQELVLFYELLGSLV

Rank (after) [9]: 136
Rank (before) [10]: 147
Population [11]: 0.0112%
Sequence: SFSFPLDQLSYFLNLP

Rank (after) [1]: 900
Rank (before) [2]: 1553
Sequence: WALNELQKILNAKETI

Rank (after) [5]: 455
Rank (before) [6]: 3269
Sequence: SSVRGGRWGLVELGKK

Rank (after) [1]: 999
Rank (before) [2]: 3024
Sequence: DPQLLDWLYERLRRPV

Rank (after) [9]: 466
Rank (before) [10]: 3127
Sequence: DSVFWDLLRYSLHVTE

P3_MyD88 Rank (after) [12]: 225
P3_MyD88 Rank (before) [13]: 1708
Sequence: YTARTNSGFHTFLDND

P8_MyD88 Rank (after) [14]: 519
P8_MyD88 Rank (before) [15]: 3226
Sequence: LGYPWIDWEYYVGIED

Rank (after) [9]: 179
Rank (before) [10]: 214
Sequence: LEANDSLFWDRLLYSLHVTE

Population [11]: 0.0224%
Sequence: DPQDLEWFYERLVSLL

Rank (after) [5]: 432
Rank (before) [6]: 2847
Sequence: QYSHTLLAHTSKFPDE

Rank (after) [1]: 883
Rank (before) [2]: 2135
Sequence: YKLALHFRVWRVGVSI

Rank (after) [9]: 435
Rank (before) [10]: 1767
Sequence: YASYDDNDYYWVTPVLLRLV

Further lines, the sequence ahead of its results:

Sequence: YELVHVWSSKANSLVG
Population (P3_MyD88 pool: P3 T-Surf phage library): 0.0032%

Sequence: DTKLKKGESIAPALMR
P3_MyD88 Rank (after) [7]: 704
P3_MyD88 Rank (before) [8]: 2101

Sequence: GFLYQALARDGFKIFM
Rank (after) [5]: 426
Rank (before) [6]: 1811

Sequence: DPQDLQWFCERLVSLF
P8_MyD88 Rank (after) [12]: 281
P8_MyD88 Rank (before) [13]: 2908

Sequence: VQWADPWFWDKLAYEK
Rank (after) [1]: 1016
Rank (before) [2]: 2215

Sequence: YELAFSHCCLFEGHST
Rank (after) [1]: 1007
Rank (before) [2]: 1925

Sequence: YLKWGYPRFWDRLRFV
P3_MyD88 Rank (after) [7]: 729
P3_MyD88 Rank (before) [8]: 1603

Sequence: LFWDRLIYAVSDVASA
Rank (after) [9]: 111
Rank (before) [10]: 119
Population [11]: 0.02%

Sequence: YPQELDWCYERLVSLL
P8_MyD88 Rank (after) [7]: 762
P8_MyD88 Rank (before) [8]: 2102

Sequence: LGYHWMGWEYFVGIED
P8_MyD88 Rank (after) [14]: 560
P8_MyD88 Rank (before) [15]: 3298

Sequence: SENYASSSWALTELVH
P3_MyD88 Rank (after) [7]: 723
P3_MyD88 Rank (before) [8]: 2958

Sequence: DPQDLDLFYERLVSMF
P8_MyD88 Rank (after) [3]: 673
P8_MyD88 Rank (before) [4]: 2739

Sequence: SSFREGLWHLLQLSLK
P3_MyD88 Rank (after) [3]: 584
P3_MyD88 Rank (before) [4]: 3198

Sequence: ELWVLRYLLPTLEEQQ
Rank (after) [9]: 157
Rank (before) [10]: 173
Population [11]: 0.00809%

Sequence: PQDRERFFERLFSLF
Rank (after) [1]: 998
Rank (before) [2]: 3490

Sequence: EWIREQLRPALDELVL
Rank (after) [5]: 165
Rank (before) [6]: 648

Sequence: ELDFSHFWLFDGQSGKDA
P8_MyD88 Rank (after) [12]: 216
P8_MyD88 Rank (before) [13]: 359

Sequence: DHHLDLPRGKAIKPEILGH
P3_MyD88 Rank (after) [14]: 483
P3_MyD88 Rank (before) [15]: 2026

Sequence: LGYHWVVWEYFVGIED
P8_MyD88 Rank (after) [3]: 594
P8_MyD88 Rank (before) [4]: 3231

Sequence: PNLRTKVLNYLMRTKT
P8_MyD88 Rank (after) [7]: 705
P8_MyD88 Rank (before) [8]: 3508

Sequence: EWIREQLHPALNERLP
P3_MyD88 Rank (after) [7]: 742
P3_MyD88 Rank (before) [8]: 2176

Sequence: LSRVPSVHEFRGFVGV
P3_MyD88 Rank (after) [14]: 573
P3_MyD88 Rank (before) [15]: 2392

Sequence: YTALTNSGFHTFRVNV
P3_MyD88 Rank (after) [3]: 659
P3_MyD88 Rank (before) [4]: 1668

Sequence: DPQDLDWFYDRLLYSLHVTE
Rank (after) [9]: 420
Rank (before) [10]: 1088

Sequence: WFLTAFRMAMDQVADT
Rank (after) [9]: 95
Rank (before) [10]: 100
Population [11]: 0.025%

Sequence: DPQDEDWLYERLGGLF
P8_MyD88 Rank (after) [7]: 712
P8_MyD88 Rank (before) [8]: 2696

Sequence: KNLIMEQLSKELHTVM
P3_MyD88 Rank (after) [7]: 724
P3_MyD88 Rank (before) [8]: 3792

Sequence: SSFREGLWRLVYLSKK
P3_MyD88 Rank (after) [14]: 538
P3_MyD88 Rank (before) [15]: 3160

Sequence: VQWDDPWFWDKLAY
P8_MyD88 Rank (after) [3]: 623
P8_MyD88 Rank (before) [4]: 2231

Sequence: LKWGDPYFWSKLLYSM
P3_MyD88 Rank (after) [12]: 247
P3_MyD88 Rank (before) [13]: 2423

Sequence: WALNELVEIYQAYKEL
P8_MyD88 Rank (after) [12]: 273
P8_MyD88 Rank (before) [13]: 521

Sequence: WALDELLQILHACEPF
P8_MyD88 Rank (after) [14]: 524
P8_MyD88 Rank (before) [15]: 1441
